Blank lines part the entries; values can stand above or below the substance they belong to.
How the values were obtained:
AKAP 150 (rat) = AKAP 150 (rat) (UniProt P24587); assay: cell-based or functional assay
TNFR1 [1] = assay: Human NP cell CRISPRi: TNFR1 knockdown (qRT-PCR); assay type: cell-based; conditions: primary human NP cells
Procedure: Quantitative RT-PCR was performed to identify TNFR1 knockdown in these primary human NP cells. Additionally, flow-cytometry was performed to determine transduction efficiency in human NP cells.

IL1R1 = assay: Guide RNA screening in HEK293T cells (qPCR), IL1R1; assay type: cell-based, human; conditions: HEK293T cells expressing dCas9-KRAB, 48 hours post transfection, relative to non-target gRNA
Description: (§1) Using the UCSC genome browser (GRCh37/hg19), the 5-UTR and the promoter region, 1000 base pairs upstream were selected and input into the CRISPR design tool (crispr.mit.edu). This tool outputs 20 bp gRNAs that are followed on their 3′ end by the PAM sequence NGG, which is specific to the CRISPR-Cas9 system derived from Streptococcus pyogenes. Additionally, the CRISPR design tool scores the potential gRNA sequences based on the number of off-target sites they have and how many are within genes (e.g., higher score means less off-target sites). […]
(§2) Total RNA was harvested from cells using Purelink RNA mini kit (Ambion). […] Changes in gene expression were expressed as fold changes in mRNA expression relative to the nontarget control, and normalized to GAPDH mRNA expression, using the ΔΔCt method.
(§3) HEK293T cells stably expressing dCas9-KRAB GFP were seeded in 6-well plates at a density of 600,000 cells/well in DMEM-HG with 10% FBS. […] Subsequently each sample was then run through taqman qPCR using primers for TNFRSF1A or IL1R1 and housekeeping gene GAPDH to quantify downregulation of each gene by each guide. Gene downregulation was quantified using the ΔΔCt method to characterize fold change relative non-target gRNA expressing cells.

human IL-6 (human) = human IL-6 (human) (UniProt P05231); assay: cell-based or functional assay
Sequence of UniProt P05231 (P05231 30-212 limits assumed): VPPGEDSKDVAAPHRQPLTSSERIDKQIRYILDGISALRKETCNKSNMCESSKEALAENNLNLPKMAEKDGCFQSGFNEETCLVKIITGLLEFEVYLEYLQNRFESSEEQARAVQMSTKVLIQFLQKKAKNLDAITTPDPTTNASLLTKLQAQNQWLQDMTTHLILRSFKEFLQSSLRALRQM

TNFR1 [2] = assay: Guide RNA screening in HEK293T cells (qPCR), TNFR1; assay type: cell-based, human; conditions: HEK293T cells expressing dCas9-KRAB, 48 hours post transfection, relative to non-target gRNA
Description: as §1, §2, §3

[3] = system: NF-κB activity in HEK293T cells; assay: NF-κB activity assay in HEK293T cells dosed with TNF-α; assay type: cell-based, human
Procedure: HEK293T cells and hADMSCs were transduced with the earlier mentioned NF-κB reporter vector and analyzed for changes in NF-κB activity in response to dosing cells with TNF-α/IL-1β (RnD systems, ProSpec). To further describe, cells expressing the NF-κB reporter were plated in white 96-well plates (HEK293T cells at 25,000 cells/well and hADMSCs at 5000 cells/well) and allowed to attach overnight. The next day cells were dosed with the appropriate amounts of inflammatory cytokines (0, […], 1, and/or 10 ng/mL of TNF-α/IL-1β) for 24 hours. At 24 hours luminescence corresponding to NF-κB activity was measured in one set of cells using the bright glo assay (Promega) and cell number was measured on another set of cells under the same treatment using the real-time glo assay (Promega). Changes in NF-κB activity were quantified as a fold change in luminescence relative to the no dose control for each cell type, with NF-κB activity normalized to cell number.

Sequence of UniProt P24587 (P24587 whole entry): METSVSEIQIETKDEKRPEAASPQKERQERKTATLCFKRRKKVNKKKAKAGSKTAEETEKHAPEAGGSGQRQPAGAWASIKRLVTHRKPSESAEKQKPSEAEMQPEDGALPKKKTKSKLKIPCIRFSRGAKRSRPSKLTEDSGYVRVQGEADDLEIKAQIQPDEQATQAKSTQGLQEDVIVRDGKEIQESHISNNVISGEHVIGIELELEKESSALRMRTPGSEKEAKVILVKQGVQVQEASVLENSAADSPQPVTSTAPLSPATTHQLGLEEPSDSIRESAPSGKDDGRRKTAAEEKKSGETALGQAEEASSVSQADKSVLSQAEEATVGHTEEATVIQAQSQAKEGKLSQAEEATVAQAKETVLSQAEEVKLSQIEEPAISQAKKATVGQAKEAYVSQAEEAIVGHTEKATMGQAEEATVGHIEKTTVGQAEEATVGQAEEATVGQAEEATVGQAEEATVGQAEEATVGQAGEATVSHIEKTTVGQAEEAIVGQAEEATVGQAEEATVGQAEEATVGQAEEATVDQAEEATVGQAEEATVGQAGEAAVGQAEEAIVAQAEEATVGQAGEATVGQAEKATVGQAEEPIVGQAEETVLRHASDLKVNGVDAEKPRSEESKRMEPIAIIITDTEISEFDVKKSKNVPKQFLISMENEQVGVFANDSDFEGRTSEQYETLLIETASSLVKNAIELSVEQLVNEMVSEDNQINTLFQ

Substance: 5′-AUAAGCGUCCGACACAUGAU-3′ (expressed or natural sequence) [gRNA 4 for TNFR1, 82]
- TNFR1 knockdown in NP cells (TNFR1 [1]; with dCas9-KRAB): 55%
- TNFR1 knockdown in NP cells (TNFR1 [1]; with dCas9 alone): no knockdown

Substance: 5′-GGAGUCGCCAACUCAAUUCG-3′ (expressed or natural sequence) [gRNA 1 for IL1R1, 84]
- IL1R1 gene downregulation (IL1R1): 67%

Substance: 5′-CAGUGUUGCAACAGCGGGAC-3′ (expressed or natural sequence) [gRNA 1 for TNFR1, 79]
- TNFR1 gene downregulation (TNFR1 [2]): up to 87%
- NF-κB activity at lowest dose ([3]; 0.15 ng/mL TNF-α): no significant increase in NF-κB activity
- decreases in NF-κB activity ([3]; 24 hours of dosing with 0, 0.15, 1, and 10 ng/mL TNF-α): up to 95%

Results, then the substance that gave them:

- percentage of neurons firing at 39° C. in degenerative IVD conditioned media (AKAP 150 (rat)): 61.9%
Substance: control peptide St-Ht31P (Promega)

- percentage of neurons firing at 39° C. in degenerative IVD conditioned media (AKAP 150 (rat)): 15.5%
Substance: AKAP inhibitor peptide St-Ht31 (Promega)

- T50 of neuron firing (Boltzmann fit) (human IL-6 (human)): 38.2 ° C.
- maximum firing response of DRG neurons (human IL-6 (human)): 66%
Substance: mouse isotype control antibody (Life Technologies)
